# In patent US20150224164A1, “TREATMENT OF AUTISM SPECTRUM DISORDERS USING GLYCYL-L-2-METHYLPROLYL-L-GLUMATIC ACID” (Neuren Pharmaceuticals Limited, priority 2013, published 2015):
# Where a SMILES comes first, the peptide text is derived from it.
# Legend:
# [1] = tested on: cortical neurons injured with okadaic acid; assay: In vitro neuroprotection, cortical cultures injured with okadaic acid (MTT); type: cell-based, rat; conditions: 10 μM; okadaic acid injury; 24 hours incubation; MTT-assay
# Experimental: A dam was sacrificed by CO2-treatment, and then was prepared for caesarean section. After surgery, the embryos were removed from their amniotic sacs and decapitated. The heads were placed on ice in DMEM/F12 medium for striatum and PBS+0.65% D(+)-glucose for cortex.
# The two cortical hemispheres were carefully removed by spatula from the whole brain with the ventral side facing upside into a PBS+0.65% D(+)-glucose containing petri dish. Forceps were put into the rostral part (near B. olfactorius) of the cortex in order to fix the tissue and two lateral-sagittal oriented cuts were made to remove the […] and entorhinal cortices. […]
# The cells were triturated once with a glass Pasteur pipette in 1 ml of Neurobasal/B27 medium and subsequently twice by using a 1 ml insulin syringe with a 22 gauge needle. […] Cells were counted and adjusted to 50,000 cells per 60 μl. […]
# To cause toxic injury to neurons, we exposed neurons to 1:100 parts of okadaic acid at concentrations of 30 nM or 100 nM and 0.5 mM 3-nitropropionic acid (for cerebellar microexplants only). […] The survival rate was determined by a colorimetric end-point MTT-assay at 595 nm in a multi-well plate reader. For the cerebellar microexplants four windows (field of 0.65 mm^2) with highest cell density were chosen and cells displaying neurite outgrowth were counted.
# [2] = tested on: hippocampal slices of heterozygous Shank3-deficient mice; assay: Hippocampal slice electrophysiology, Shank3-deficient mice (Example 13); type: in vivo, mouse; conditions: 15 or 60 mg/kg oral b.i.d. 14 days
# Experimental: 1 to 3 month old wild type and heterozygous Shank3-deficient mice are divided into 4 treatment groups: placebo treated wild-type, placebo treated Shank3-deficient group and two Shank3-deficient G-2-MePE treated groups. The animals are given placebo (water) or G-2-MePE formulated in water administered orally, b.i.d for 14 days. G-2-MePE is administered at two doses: 15 or 60 mg/kg.
# Post-mortem, acute hippocampal slices (350 μm) are prepared from mice using a tissue chopper. Slices are maintained and experiments are conducted at 32° C. Slices are perfused with Ringer's solution containing (in mM): NaCl, 125.0; KCl, 2.5; MgSO4, 1.3; NaH2PO4, 1.0; NaHCO3, 26.2; CaCl2, 2.5; glucose, 11.0. […] Slices are maintained for 1 hr prior to establishment of a baseline of field excitatory postsynaptic potentials (fEPSPs) recorded from stratum radiatum in area CA1, evoked by stimulation of the Schaffer collateral-commissural afferents (100 μs pulses every 30 s) with bipolar tungsten electrodes placed into area CA3. […] The EPSP initial slope (mV/ms) is determined from the average waveform of four consecutive responses. […] AMPA receptor-mediated and NMDA receptor-mediated I/O relationships are measured in the presence of ionotropic glutamate receptor antagonists: […] APV (50 μM) and 6-cyano-7-nitroquinoxaline-2,3-dione CNQX (100 μM). […]
smiles,measurement,setting,value
"C[C@@]1(C(=O)N[C@@H](CCC(=O)O)C(=O)O)CCCN1C(=O)CN [Example G-2-MePE, Glycyl-L-2-methylprolyl-L-glutamic acid] (HELM PEPTIDE1{G.[C[C@@]1(C(=O)[*:2])CCCN1[*:1]].E}$$$$V2.0)",neuroprotection,[1],59%
same,"AMPA receptor-mediated field potentials, slope of I/O function",[2],normalizes
same,hippocampal LTP and its maintenance,[2],increased hippocampal long-term potentiation
